Data on one compound can be found in US5985926A, “Method for inhibiting intracellular viral replication” (Cell Therapeutics, Inc., priority 1997, dated 1999).

Like-named read-outs stand apart in the source and are kept apart here.

The test system of assay [1] is HIV-1 in U1 cells (IL-6 mediated expression). Put plainly: IL-6-mediated HIV-1 p24 antigen expression in chronically infected U1 cells. It counts as cell-based, HIV-1; human cells. How it is done:
FIG. 17 illustrates a dose response curves of CT2576 on constitutive, TNF-α, and IL-6-mediated expression of HIV-1 in a chronically infected U1 cell line (left Y-axis) and of CT3537 on HIV expression in PBL acutely infected with the JR-CSF primary isolate (right Y-axis). U1 cells were incubated for four days after the addition of CT2576 with or without TNF-α (20 pg/ml) or IL-6 (1 ng/ml). PBL were inoculated with HIV at 10 ng virus/10^6 cells/well and incubated with various concentrations of CT3537 for 7 days. Each data point represents the average expression levels of HIV-1 p24-antigen in the cell supernatants measured by ELISA from triplicate samples with error bar indicating the SD.
(§1) Stable cell lines 293tar, 293tat and 293tat2 were generated by transfections using conditions described in (Tate et al., FASEB J. 4:227-231, 1990) with the plasmid pHIV.AP alone or along with either pHIV.tat or pSV2tat72, respectively. The assay of HIV-1 p24 antigen expression in the chronically HIV-1-infected promonocytic line U1 after 4 days and in acutely infected peripheral blood lymphocytes (PBL) after 7 days were described (Peterson et al., J. Clin. Invest. 89:574-580, 1992, and Brighty et al., Proc Natl. Acad. Sci. USA 88:7802-7805, 1991).
This example illustrates that CT2576 inhibited both constitutive and cytokine-induced HIV expression in a chronically-infected U1 cell line. A chronically HIV-1 infected human promonocyte cell line, U1 (Poli et al., J. Exp. Med. 172:151-158, 1990), was used as a model to see if the inhibitory effect of CT2576 on HIV-LTR driven reporter gene expression could be extended to block HIV replication per se in infected cells. TNF-α and IL-6 have been reported to upregulate the expression of HIV-1 in U1 cells (Poli et al., Proc Natl. Acad. Sci. USA 91:108-112, 1994). U1 cells were plated onto 24-well microtiter plates to study the dose-response effect of CT2576 on the constitutive (10^4 cells/well), TNF-α or IL-6 mediated (2×10^3 cells/well) expression of HIV-1. […]

For assay [2], the system named is HIV-LTR promoter in 293tat cells. In words: HIV-LTR directed AP reporter expression in 293tat cells activated by tat and TNF-α. Type of assay: cell-based. Particulars: Homo sapiens. How it is done:
293tat cells, a cell line stably transfected with the expression plasmids pHIV.AP and pHIV.tat, were plated onto 96-well microtiter plates at 2000 cells per well. The media were changed the next day and CT2576 was added at the indicated concentrations to the fresh media with or without TNF-α (20 ng/ml). 2 μl of medium from each well was used for AP assay 24 hr later. After culture media were withdrawn for AP assay, cytotoxicity was measured for the same cell cultures using an indicator dye, Alamar Blue™, that would change color in response to the reduction potential of cell medium due to cell growth. The left y-axis refers to the absorbance value of the reduced form of Alamar Blue™ at 570 nm with the background absorbance at 600 nm from the oxidized form of Alamar Blue™ subtracted. Each data point represents the mean of triplicate samples with error bar indicating the standard deviation of the mean.
as §1
This example illustrates that CT2576 inhibited TNF-α and tat-activated HIV-LTR promoter directed expression in 293tat cells. Cell activation signals generated by interaction of ligands with receptors are eventually converted to changes in the pattern of gene expression. A reporter gene expression system under the control of the HIV-LTR promoter was set up to investigate compounds that inhibit signaling pathway for HIV activation in infected cells. […]

Assay [3] deals with PA formation in EB293 cells. Put plainly: PA and lyso (bis) PA species in TNF-stimulated EB293 cells (HPLC peaks D and A5). It counts as cell-based, human. As to conditions: CT2576 10 μM, TNF 20 ng/ml. From the text:
One must first quantitatively and qualitatively separate PAs from the other lipids found in serum by a chemical extraction of lipids and high performance liquid chromatography (HPLC) to separate and detect PAs. Chemical extraction can be accomplished, for example, by the method of Bligh et al. (Canadian J. Biochem. Physiol. 37:911-917, 1959) or that of Folch et al. (J. Biol. Chem. 226:497-509, 1957). Briefly, the method of Bligh et al. involves an organic extraction of lipids from biological tissue homogenates or fluids. One volume of sample and three volumes of methanol:chloroform (2:1) are vigorously shaken for 2 min. One volume of chloroform is added and then shaken vigorously for 30 sec. One volume of water is added and then shaken vigorously for 30 sec. The mixture is filtered and the upper aqueous layer is discarded. The lower organic layer contains a mixture of lipid classes. The method of Folch et al. involves the extraction of lipids from biological tissue homogenates or body fluids. One volume of sample plus 20 volumes of chloroform:methanol (2:1) are vigorously shaken for 2 min. The mixture is filtered and an amount of 0.1 N KCl equal to 20% of the extraction mixture volume is added and the mixture is shaken vigorously for 2 min. The aqueous and organic phases are allowed to separate. The upper aqueous layer is discarded. […]

In the case of `CCCCCCCCNCC(O)CCCCCCCCCn1c(=O)c2c(ncn2C)n(C)c1=O` (centres unmarked) [CT2576, 1-(11-octylamino-10-hydroxyundecyl)-3,7-dimethylxanthine], the IC50 in assay [1] (Human immunodeficiency virus 1, 96 h, read-out: IC50, IL-6 mediated HIV expression, U1 cells, 4 days) was ~1000 nM; in assay [1] (U1 cells, 4 days, read-out: IC50, IL-6 mediated HIV expression), < 1000 nM; in assay [2] (read-out: IC50, TNF-α induced HIV-LTR directed AP expression, 293tat cells, with TNF-α (20 ng/ml)), ~10 µM; in assay [2] (read-out: IC50, tat-dependent HIV-LTR directed AP expression, 293tat cells, tat activation, without TNF-α) it was ~10 µM. The “inhibition of IL-6 mediated HIV-1 expression (p24)” value in assay [1] (U1 cells, in words) is reported as “inhibited”. Moreover, the inhibition at 12 µM in assay [2] (24 h, 293tat cells, CT2576 12 μM, after TNF-α or IL-1β induction, read-out: decrease in AP activity after TNF-α or IL-1β induction) was 83 to 90%. Also, in assay [3], the “PA mass (peak D), TNF-stimulated EB293 cells” value is “reduced PA mass across all time points measured”. Besides, in assay [3], the “lyso (bis) PA species (peak A5), TNF-stimulated EB293 cells” value was “increased lyso (bis) PA species across all time points”.
